Data reported in US8653054B2, “2-(N-substituted piperazinyl) steroid derivatives” (Universite Laval, priority 2008, dated 2014).
Like-named read-outs stand apart in the source and are kept apart here.

Columns and labels:
[1] = test system: HL-60 acute promyelocytic leukemia cells; assay: Cell proliferation assay (MTS) on HL-60 leukemia cells; format: cell-based, human;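 also: cells exposed to serially diluted compound for 3 days at 37 °C, then viable cell number read via MTS conversion to coloured formazan by metabolically active cells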
Method: (§1) All of the following cell lines were maintained under a CO2 humidified atmosphere at 37° C. The culture media were changed every 3-4 days and the cells were split once a week.
(§2) For the assay, the culture medium was the same.
(§3) The cell proliferation assay was performed using 3-(4,5-dimethylthiazol-2-yl)-5-(3-carboxymethoxyphenyl)2-(4-sulfophenyl)-2H-tetrazolium (MTS) (Cell Titer 96 Aqueous, Promega, USA). MTS is converted into water-soluble colored formazan by dehydrogenase enzymes present in metabolically active cells, which allows the measurement of the number of viable cells.
(§4) The cells were incubated at 37° C. and 5% CO2. The steroid derivatives of the present disclosure were dissolved in ethanol to prepare the 1×10^−2 M stock solutions. The stock solutions and doxorubicin (DOX) (Novapharm, Toronto, Canada) were diluted at multiple concentrations with culture media, added to each well, as indicated, and incubated for 3 days. Following each treatment, 20 μl MTS was added to each well and the mix was incubated for 4 h.

[2] = in vivo; settings: male, Sprague-Dawley, rat, sc, 2.3 mg/kg
[3] = test system: MCF-7 breast cancer cells; assay: Cell proliferation assay (MTS) on MCF-7 breast cancer cells; format: cell-based, human; settings: Table 3, 3 days incubation
Method: MCF-7 breast cancer cells were maintained in Dulbecco's Modified Eagle's Medium (DMEM) containing a nutriment mixture F-12 ham (DME-F12) (Sigma, Saint Louis, USA) supplemented with 5% (v/v) fetal bovine serum (FBS), L-glutamine ([…]), penicillin (100 IU/ml), streptomycin sulphate (50 μg/ml) and estradiol (1 nM). For the assay, DME-F12 was supplemented with 5% (v/v) charcoal-strippes FBS, insulin (50 ng/ml) and the same concentrations of antibiotics as above.

[4] = test system: MDA-MB-231 (ER−) breast cancer cells; assay: Cell proliferation assay (MTS) on MDA-MB-231 (ER−) breast cancer cells; format: cell-based; settings: Table 3, 3 days incubation
[5] = test system: Shionogi mammary carcinoma cells (AR+); assay: Cell proliferation assay (MTS) on Shionogi mammary carcinoma cells; format: cell-based; settings: Table 3, 3 days incubation
Method: Shionogi mammary carcinoma cells bearing androgen-sensitive (AR+) were routinely grown in Eagle's Minimal Essential Medium (MEM) (Sigma, Saint Louis, USA) supplemented with 5% (v/v) fetal bovine serum (FBS), penicillin (100 IU/ml), streptomycin sulphate (50 μg/ml), 1% (v/v) non-essential amino acids and dihydrotestosterone DHT (10^−8 M). For the assay, MEM devoid of the pH indicator phenol red was supplemented with 2% (v/v) charcoal-strippes FBS and the same concentrations of antibiotics and non-essential amino acids as above.

[6] = test system: LNCaP prostate cancer cells; assay: Cell proliferation assay (MTS) on LNCaP prostate cancer cells; format: cell-based; settings: Table 3, 3 days incubation
Method: as §3, §4

[7] = test system: PC-3 (AR−) prostate cancer cells; assay: Cell proliferation assay (MTS) on PC-3 (AR−) prostate cancer cells; format: cell-based; settings: Table 3, 3 days incubation
Method: as §1, §2, §3, §4

[8] = test system: OVCAR-3 ovarian cancer cells; assay: Cell proliferation assay (MTS) on OVCAR-3 ovarian cancer cells; format: cell-based
From the text: For the assay, the culture medium was the same, but without estradiol.

[9] = test system: K-562 leukemia cells; assay: Cell proliferation assay (MTS) on K-562 leukemia cells; format: cell-based; settings: Table 3, 3 days incubation
Method: as §1, §2, §3, §4

[10] = test system: WI-38 diploid fibroblasts; assay: Cell proliferation assay (MTS) on WI-38 normal fibroblasts; format: cell-based, human; settings: Table 3, normal cells, 3 days incubation
Method: WI-38 diploid fibroblasts derived from embryonic human lung were cultured in MEM (devoid of the pH indicator phenol red) supplemented with 10% (v/v) FBS, L-glutamine (2 nM), penicillin (100 IU/ml), streptomycin sulphate (50 μg/ml), sodium pyruvate (1 mM) and non-essential amino acids (0.1 mM).
as §3, §4

[11] = test system: normal lymphocytes from peripheral blood; assay: Cell proliferation assay (MTS) on normal lymphocytes; settings: read-out: IC50 Lymph Norm.
Method: as §1, §2, §3, §4

[12] = Plasmatic concentration (AUC) of aminosteroids after a single subcutaneous injection in rat; settings: Table 5, subcutaneous one time, 2.3 mg/kg
Method: Animals: Six to seven week-old male Sprague-Dawley rats (Crl:CD®(SD)Br VAF/Plus™) weighing approximately 220 g were obtained from Charles-River, Inc (St-Constant, Qc., Canada). The animals were acclimatized to environmental conditions (temperature: 22±3° C.; humidity: 50±20%; 12-h light/12-h dark cycles, lights on at 07:15 h) for at least 5 days before starting the experiment. The animals were housed three per cage and were allowed free access to water and a certified commercial rodent food (Rodent Diet #T.2018.15, Harlan Teklad, Madison, Wis., U.S.A.) and were randomized according to their body weight.
Assay: A pharmacokinetic study was carried out following one subcutaneous (s.c.) injection of the aminosteroids at one concentration (2.3 mg/kg of body weight in 0.5 mL of vehicle fluid). The compound was first dissolved in Ethanol (EtOH) followed by the addition of propylene glycol such that a final concentration of EtOH of 8% was obtained. During this experiment, the rats were housed individually and were fasted for 8h before injection of the aminosteroid. Blood samples for determination of aminosteroid plasma concentration were collected at the jugular vein (0.4 mL by animal) at target intervals of 3, 7, 12 and 24 h (or 3 and 12 h) post-dose from six rats per time point (Tables 5, 6 and 7). After the collect at 7 h, a replacement fluid (0.9% sodium chloride injection USP) was injected in the rat. Blood samples were collected in Microvette potassium-EDTA (ethylenediamine tetra-acetic acid)-coated tubes (Sarstedt, Aktiengesellchaft & Co, Germany) and centrifuged at 3200 rpm for 10 minutes at 4° C. The plasma was collected and stored at −80° C. until analyzed by liquid chromatography/mass spectrometry/mass spectrometry (LC/MS/MS) analysis.
Aminosteroid measurement: The concentration of the aminosteroid was determined by LC/MS/MS analysis using a procedure developed at the CHUQ (CHUL)—Research Center (Québec, Qc, Canada). Briefly, for extraction from serum, 100 νL, of the serum sample was transferred to individual tubes and 600 μL of ammonium acetate (1 mM) was added. A methanolic solution (50 μL) containing a steroidal internal standard was then added to each tube. Samples were transferred on Strata-X SPE columns (Phenomenex, Torrance, Calif., USA), which have been conditioned with 2 mL of MeOH and 2 mL of water. Each column was washed with 2 mL of MeOH:water (10:90, v/v). The aminosteroid was then eluted with 5 mL of MeOH containing 5 mM ammonium acetate. The MeOH was evaporated at 45° C. under inert atmosphere and the dried residue dissolved in 100 μL of MeOH:water (85:15, v/v). […] The inhibitor was detected using an API 3000 mass spectrometer, equipped with TurbolonSpray (Applied Biosystems, Canada). ESI in positive ion mode was used.

[13] = Homo sapiens, OVCAR-3, 72 h, Table 3, 3 days incubation, MTS
[14] = Homo sapiens, HL-60, 72 h, Table 3, 3 days incubation, MTS, read-out: IC50 HL-60
[15] = Table 3, 3 days incubation, MTS
[16] = Table 3, 3 days incubation, MTS, read-out: IC50 HL-60
[17] = Table 3, normal lymphocytes, 3 days incubation, MTS

C[C@]12CC[C@H]3[C@@H](CCC4C[C@H](OS(N)(=O)=O)[C@@H](N5CCN(C(=O)[C@@H]6CCCN6C(=O)c6ccc7ccccc7c6)CC5)C[C@@]43C)[C@@H]1CC[C@@H]2OS(N)(=O)=O (stereo partly drawn) [39 (AH-70), (2β,3α,17β)-2-{4-[1-(naphthalen-2-ylcarbonyl)-L-prolyl]piperazin-1-yl}androstane-3,17-diyl disulfamate]
IC50 ([1]; Homo sapiens, Table 4, HL-60 cancer cell line, read-out: IC50): 5 µM
IC50 ([1]; Homo sapiens, Table 6, HL-60 cancer cell line, read-out: IC50 (HL-60)): 5 µM
AUC(0-t) ([2]; AUC (0-3 h)): 11 ng·h/mL
AUC(0-t) ([2]; AUC (0-12 h)): 67 ng·h/mL

COc1cccc2c1C(=O)c1c(O)c3c(c(O)c1C2=O)C[C@@](O)(C(=O)CO)C[C@@H]3O[C@H]1C[C@H](N)[C@H](O)[C@H](C)O1 [Doxorubicin, reference compound]
IC50 ([3]; Homo sapiens, MCF7, 72 h): > 10 µM
IC50 ([4]; Homo sapiens, MDA-MB-231, 72 h): 0.9 µM
IC50 ([5]; 72 h): 1.3 µM
IC50 ([6]; Homo sapiens, LNCaP, 72 h): 0.1 µM
IC50 ([7]; PC3/AR, 72 h): 0.9 µM
IC50 ([8]; Homo sapiens, OVCAR-3): 0.9 µM
IC50 [8, 13]: 0.9 µM
IC50 [1, 14]: 0.08 µM
IC50 ([9]; Homo sapiens, K562, 72 h): 0.4 µM
IC50 ([10]; Homo sapiens, WI-38, 72 h): 3 µM
IC50 ([11]; Lymphocyte, 72 h): 0.16 µM

CC(=O)c1cccc(C(=O)N[C@@H](Cc2ccccc2)C(=O)N2CCN([C@H]3C[C@@]4(C)[C@@H](CC[C@@H]5[C@@H]4CC[C@]4(C)[C@@H](O)CC[C@@H]54)C[C@@H]3O)CC2)c1 [FC-48, 3-acetyl-N-[(2S)-1-{4-[(2β,3α,5α,17β)-3,17-Dihydroxyandrostan-2-yl]piperazin-1-yl}1-oxo-3-phenylpropan-2-yl]benzamide]
IC50 ([3]; Homo sapiens, MCF7, 72 h): 1.5 µM
IC50 ([4]; Homo sapiens, MDA-MB-231, 72 h): > 10 µM
IC50 ([5]; 72 h): 1.3 µM
IC50 ([6]; Homo sapiens, LNCaP, 72 h): 2.2 µM
IC50 ([7]; PC3/AR, 72 h): > 10 µM
IC50 [8, 13]: 1.6 µM
IC50 [1, 14]: 1.8 µM
IC50 ([9]; Homo sapiens, K562, 72 h): > 10 µM
IC50 ([10]; Homo sapiens, WI-38, 72 h): > 10 µM
AUC(0-t) ([2]; AUC (7 h)): 290 ng·h/mL
AUC(0-t) ([2]; AUC (24 h)): 555 ng·h/mL
AUC(0-t) ([2]; AUC(12 h)): 413 ng·h/mL
IC50 ([11]; Lymphocyte, 72 h): > 50 µM

CC[C@]1(O)CC[C@H]2[C@@H]3CC[C@H]4C[C@H](O)[C@@H](N5CCN(C(=O)[C@@H]6CCCN6C(=O)c6cccc7ccccc67)CC5)C[C@]4(C)[C@H]3CC[C@@]21C [LPC-37]
AUC (7 h) [12]: 372 ng·h/mL
AUC (24 h) [12]: 681 ng·h/mL
AUC(12 h) [12]: 525 ng·h/mL

C[C@]12C[C@H](N3CCN(C(=O)[C@@H]4CCCN4C(=O)c4ccc(C#N)cc4)CC3)[C@@H](O)C[C@@H]1CC[C@@H]1[C@@H]2CC[C@]2(C)[C@@H](O)CC[C@@H]12 [PC-41, 4-{[(2S)-2-({4-[(2β,3α,5α,17β)-3,17-dihydroxyandrostan-2-yl]piperazin-1-yl}carbonyl)pyrrolidin-1-yl]carbonyl}benzonitrile]
IC50 ([3]; Homo sapiens, MCF7, 72 h): 0.4 µM
IC50 ([4]; Homo sapiens, MDA-MB-231, 72 h): > 10 µM
IC50 ([5]; 72 h): 0.2 µM
IC50 ([6]; Homo sapiens, LNCaP, 72 h): 1 µM
IC50 ([7]; PC3/AR, 72 h): 6.5 µM
IC50 [8, 13]: 0.8 µM
IC50 [1, 14]: 3.1 µM
IC50 ([9]; Homo sapiens, K562, 72 h): > 10 µM
IC50 ([10]; Homo sapiens, WI-38, 72 h): > 10 µM
IC50 ([11]; Lymphocyte, 72 h): 19.3 µM

C[C@]12C[C@H](N3CCN(C(=O)[C@@H]4CCCN4C(=O)/C=C/c4ccccc4)CC3)[C@@H](O)C[C@@H]1CC[C@@H]1[C@@H]2CC[C@]2(C)[C@@H](O)CC[C@@H]12 [PC-42]
IC50 [3]: 0.4 µM
IC50 [4]: > 10 µM
IC50 [5]: 0.2 µM
IC50 [6]: 0.5 µM
IC50 [7]: 4 µM
IC50 [8, 15]: 0.8 µM
IC50 [1, 16]: 1.5 µM
IC50 [9]: 9.3 µM
IC50 [10]: > 10 µM
IC50 [11, 17]: 7.9 µM
AUC (7 h) [12]: 641 ng·h/mL
AUC (24 h) [12]: 767 ng·h/mL
AUC(12 h) [12]: 751 ng·h/mL

C=C(C)[C@H]1CC=C(C(=O)N2CCC[C@H]2C(=O)N2CCN([C@H]3C[C@@]4(C)[C@@H](CC[C@@H]5[C@@H]4CC[C@]4(C)[C@@H](O)CC[C@@H]54)C[C@@H]3O)CC2)CC1 [PC-46]
IC50 [3]: 0.7 µM
IC50 [4]: > 10 µM
IC50 [5]: 0.2 µM
IC50 [6]: 0.9 µM
IC50 [7]: 4 µM
IC50 [8, 15]: 1.3 µM
IC50 [1, 16]: 1.9 µM
IC50 [9]: 14.1 µM
IC50 [10]: > 10 µM
IC50 [11, 17]: 9.3 µM
AUC (7 h) [12]: 771 ng·h/mL
AUC (24 h) [12]: 830 ng·h/mL
AUC(12 h) [12]: 830 ng·h/mL
